Source: ChEMBL document CHEMBL5380817, “Discovery of LL-K8-22: A Selective, Durable, and Small-Molecule Degrader of the CDK8-Cyclin C Complex” (J Med Chem, 2023)
Active and inactive are the calls of the source.

Tests used:
[1] = target: T1, CDK8/Cyclin C (Homo sapiens) (UniProt P49336+P24863); assay: Hydrophobic-tagging degradation activity at CDK8/Cyclin C (unknown origin) assessed as protein degradation at 0.625 to 10 uM incubated for 48 hrs by Western blotting analysis; type: protein-complex assay; conditions: dose 0.625-10 µM
[2] = target: T2, Cyclin-dependent kinase 8 (Homo sapiens, UniProt P49336); assay: Hydrophobic-tagging degradation activity at CDK8 in human MDA-MB-468 cells assessed as degradation of CDK8 incubated for 48 hrs by Western blotting analysis; type: cell-based
Cyclin-C = Cyclin-C (Homo sapiens, UniProt P24863); assay: PROTAC activity at Cyclin C in human MDA-MB-468 cells assessed as degradation of Cyclin C incubated for 48 hrs by Western blotting analysis; type: cell-based
[3] = target: T1, CDK8/Cyclin C (Homo sapiens); assay: Hydrophobic-tagging degradation activity at CDK8/Cyclin C in human HCT-116 cells assessed as protein degradation at 0.75 to 20 uM incubated for 48 hrs by Western blotting analysis; type: cell-based; conditions: dose 0.75-20 µM
[4] = target: Cyclin-dependent kinase 12 (Homo sapiens) (UniProt Q9NYV4); assay: PROTAC activity at CDK12 in human MDA-MB-468 cells assessed as degradation of CDK12 at 0.625 to 10 uM incubated for 24 hrs by Western blotting analysis; type: cell-based; conditions: dose 0.625-10 µM
[5] = target: Cyclin-dependent kinase 19 (Homo sapiens) (UniProt Q9BWU1); assay: Hydrophobic-tagging degradation activity at CDK19 in human MDA-MB-468 cells assessed as degradation of CDK19 at 0.625 to 10 uM incubated for 24 hrs by Western blotting analysis; type: cell-based; conditions: dose 0.625-10 µM
Cyclin-A2 (Homo sapiens) = Cyclin-A2 (Homo sapiens) (UniProt P20248); assay: PROTAC activity at Cyclin A2 in human MDA-MB-468 cells assessed as degradation of Cyclin A2 at 0.625 to 10 uM incubated for 24 hrs by Western blotting analysis; type: cell-based; conditions: dose 0.625-10 µM
Cyclin-H (Homo sapiens) = Cyclin-H (Homo sapiens) (UniProt P51946); assay: PROTAC activity at Cyclin H in human MDA-MB-468 cells assessed as degradation of Cyclin H at 0.625 to 10 uM incubated for 24 hrs by Western blotting analysis; type: cell-based; conditions: dose 0.625-10 µM
Cyclin-K (Homo sapiens) = Cyclin-K (Homo sapiens) (UniProt O75909); assay: PROTAC activity at Cyclin K in human MDA-MB-468 cells assessed as degradation of Cyclin K at 0.625 to 10 uM incubated for 24 hrs by Western blotting analysis; type: cell-based; conditions: dose 0.625-10 µM
Cyclin-C (Homo sapiens) = Cyclin-C (Homo sapiens) (UniProt P24863); assay: PROTAC activity at Cyclin C in human MDA-MB-468 cells assessed as degradation of Cyclin C at 0.625 to 10 uM incubated for 24 hrs by Western blotting analysis; type: cell-based; conditions: dose 0.625-10 µM
[6] = target: Cyclin-dependent kinase 1 (Homo sapiens) (UniProt P06493); assay: Hydrophobic-tagging degradation activity at CDK1 in human MDA-MB-468 cells assessed as downregulation of CDK1 mRNA level at 1.1 to 10 uM incubated for 24 hrs by RT-qPCR analysis; type: cell-based; conditions: dose 1.1-10 µM
[7] = target: T2, Cyclin-dependent kinase 8; assay: Hydrophobic-tagging degradation activity at CDK8 in human MDA-MB-468 cells assessed as degradation of CDK8 protein at 5 uM incubated for 12 hrs by DIA-based proteomic analysis; type: cell-based
[8] = target: Cyclin-dependent kinase 19 (Homo sapiens) (UniProt Q9BWU1); assay: Hydrophobic-tagging degradation activity at CDK19 in human MDA-MB-468 cells assessed as degradation of CDK19 protein at 5 uM incubated for 12 hrs by DIA-based proteomic analysis; type: cell-based
[9] = target: T1, CDK8/Cyclin C (Homo sapiens); assay: Hydrophobic-tagging degradation activity at CDK8/Cyclin C in human MDA-MB-468 cells assessed as protein degradation at 1.1 to 10 uM incubated for 24 hrs in presence of MG132 by Western blotting analysis; type: cell-based; conditions: dose 1.1-10 µM
[10] = target: T1, CDK8/Cyclin C (Homo sapiens); assay: Hydrophobic-tagging degradation activity at CDK8/Cyclin C in human MDA-MB-468 cells assessed as effect on mRNA expression level at 1.1 to 10 uM by […] analysis; type: cell-based; conditions: dose 1.1-10 µM
[11] = target: T1, CDK8/Cyclin C (Homo sapiens); assay: Hydrophobic-tagging degradation activity at CDK8/Cyclin C in human MDA-MB-468 cells assessed as protein degradation at 5 uM incubated for 2 to 72 hrs by Western blotting analysis; type: cell-based; conditions: time 2-72 hrs, TDE = time-dependent effect
MDA-MB-468 [12] = assay: Antiproliferative activity against human MDA-MB-468 cells assessed as reduction in cell viability incubated for 4 days by Celltiter glo luminescent assay; type: functional, cell-based; conditions: time 4.0 day
MDA-MB-468 [13] = assay: Inhibition of colony formation in human MDA-MB-468 cells assessed as reduction in cell colony number at 1.25 to 20 uM incubated for 3 days by crystal violet staining based assay; type: functional; conditions: dose 1.25-20 µM, time 3.0 day
MDA-MB-468 [14] = assay: Inhibition of colony formation in human MDA-MB-468 cells assessed as reduction in cell colony size at 1.25 to 20 uM incubated for 3 days by crystal violet staining based assay; type: functional; conditions: dose 1.25-20 µM, time 3.0 day
[15] = target: T1, CDK8/Cyclin C (Homo sapiens); assay: Hydrophobic-tagging degradation activity at CDK8/Cyclin C in human MDA-MB-468 cells assessed as downregulation of C-terminal RNA polymerase II phosphorylation at serine 5 at 2 to 8 uM incubated for 24 hrs by Western blotting analysis; type: cell-based; conditions: dose 2-8 µM
[16] = target: T1, CDK8/Cyclin C (Homo sapiens); assay: Hydrophobic-tagging degradation activity at CDK8/Cyclin C in human MDA-MB-468 cells assessed as downregulation of STAT1 phosphorylation at Ser727 residue at 2 to 8 uM incubated for 24 hrs by Western blotting analysis; type: cell-based; conditions: dose 2-8 µM
[17] = target: T1, CDK8/Cyclin C (Homo sapiens); assay: Hydrophobic-tagging degradation activity at CDK8/Cyclin C in human MDA-MB-468 cells assessed as downregulation of STAT1 phosphorylation at Ser727 residue at 4 uM incubated for 24 hrs by Western blotting analysis; type: cell-based
[18] = target: T1, CDK8/Cyclin C (Homo sapiens); assay: Hydrophobic-tagging degradation activity at CDK8/Cyclin C in human MDA-MB-468 cells assessed as effect on mRNA expression level at 4 uM incubated for 24 hrs by […] analysis; type: cell-based
[19] = target: T1, CDK8/Cyclin C (Homo sapiens); assay: Hydrophobic-tagging degradation activity at CDK8/Cyclin C in human MDA-MB-468 cells assessed as downregulation of E2F gene expression level at 4 uM incubated for 24 hrs by qPT-PCR analysis; type: cell-based
[20] = target: T2, Cyclin-dependent kinase 8; assay: Hydrophobic-tagging degradation activity at CDK8 in human MDA-MB-468 cells assessed as downregulation of EAPP protein expression at 5 uM incubated for 12 hrs by DIA-based proteomic analysis; type: cell-based
[21] = target: T2, Cyclin-dependent kinase 8; assay: Hydrophobic-tagging degradation activity at CDK8 in human MDA-MB-468 cells assessed as downregulation of SMAD2 protein expression at 5 uM incubated for 12 hrs by DIA-based proteomic analysis; type: cell-based
MDA-MB-468 [22] = assay: Antiproliferative activity against human MDA-MB-468 cells assessed as inhibition of cell proliferation incubated for 4 days by Celltiter glo luminescent assay; type: functional, cell-based; conditions: MDA-MB-468, 96 h
HCT-116 = assay: Antiproliferative activity against human HCT-116 cells assessed as inhibition of cell proliferation incubated for 4 days by Celltiter glo luminescent assay; type: functional, cell-based; conditions: HCT-116, 96 h

T2 sequence (P49336 whole entry): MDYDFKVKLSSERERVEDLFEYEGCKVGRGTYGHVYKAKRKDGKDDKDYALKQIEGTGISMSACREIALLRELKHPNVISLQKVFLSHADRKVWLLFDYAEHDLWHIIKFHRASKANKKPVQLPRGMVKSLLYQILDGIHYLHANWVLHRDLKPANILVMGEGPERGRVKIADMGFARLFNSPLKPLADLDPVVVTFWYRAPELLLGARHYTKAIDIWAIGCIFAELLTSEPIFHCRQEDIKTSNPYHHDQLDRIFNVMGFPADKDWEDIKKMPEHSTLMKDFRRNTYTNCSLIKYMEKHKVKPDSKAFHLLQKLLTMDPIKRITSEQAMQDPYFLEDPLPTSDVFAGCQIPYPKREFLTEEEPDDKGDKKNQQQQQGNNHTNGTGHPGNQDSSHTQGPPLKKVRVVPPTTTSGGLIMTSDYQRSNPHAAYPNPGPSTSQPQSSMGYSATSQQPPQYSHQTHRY
Chain of Cyclin-dependent kinase 19 (Homo sapiens) (Q9BWU1 whole entry): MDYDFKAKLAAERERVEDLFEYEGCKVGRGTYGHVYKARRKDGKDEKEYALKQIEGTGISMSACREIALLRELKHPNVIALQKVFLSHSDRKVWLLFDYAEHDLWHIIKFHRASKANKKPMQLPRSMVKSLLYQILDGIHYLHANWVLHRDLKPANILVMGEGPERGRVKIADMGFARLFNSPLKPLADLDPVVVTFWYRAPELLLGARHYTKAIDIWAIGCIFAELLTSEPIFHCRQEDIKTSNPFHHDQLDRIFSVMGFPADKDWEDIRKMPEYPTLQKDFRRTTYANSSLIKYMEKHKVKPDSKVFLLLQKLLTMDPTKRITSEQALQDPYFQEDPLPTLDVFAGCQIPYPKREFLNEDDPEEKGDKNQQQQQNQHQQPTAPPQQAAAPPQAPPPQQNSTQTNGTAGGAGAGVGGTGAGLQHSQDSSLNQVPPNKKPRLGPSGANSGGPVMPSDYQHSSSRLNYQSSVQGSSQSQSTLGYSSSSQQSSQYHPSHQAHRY
Chain of Cyclin-H (Homo sapiens) (P51946 whole entry): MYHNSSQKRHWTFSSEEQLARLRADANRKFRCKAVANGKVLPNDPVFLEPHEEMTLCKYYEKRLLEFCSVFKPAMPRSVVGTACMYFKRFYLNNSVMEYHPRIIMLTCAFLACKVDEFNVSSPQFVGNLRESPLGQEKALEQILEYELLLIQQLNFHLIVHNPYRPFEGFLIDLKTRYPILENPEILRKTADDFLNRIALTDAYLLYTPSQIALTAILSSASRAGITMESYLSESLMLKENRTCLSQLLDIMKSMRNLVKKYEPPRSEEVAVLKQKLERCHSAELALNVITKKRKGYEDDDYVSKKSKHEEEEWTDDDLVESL
Chain of Cyclin-dependent kinase 1 (Homo sapiens) (P06493 whole entry, looked up): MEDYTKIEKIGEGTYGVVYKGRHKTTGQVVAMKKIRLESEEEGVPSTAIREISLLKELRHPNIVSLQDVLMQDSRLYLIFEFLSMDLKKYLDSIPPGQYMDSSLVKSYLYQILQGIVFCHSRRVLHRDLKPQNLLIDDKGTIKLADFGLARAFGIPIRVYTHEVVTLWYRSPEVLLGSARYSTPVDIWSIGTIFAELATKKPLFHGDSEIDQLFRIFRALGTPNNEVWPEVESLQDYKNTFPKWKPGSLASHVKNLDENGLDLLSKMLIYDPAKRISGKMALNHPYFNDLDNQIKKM
Chain of Cyclin-A2 (Homo sapiens) (P20248 whole entry): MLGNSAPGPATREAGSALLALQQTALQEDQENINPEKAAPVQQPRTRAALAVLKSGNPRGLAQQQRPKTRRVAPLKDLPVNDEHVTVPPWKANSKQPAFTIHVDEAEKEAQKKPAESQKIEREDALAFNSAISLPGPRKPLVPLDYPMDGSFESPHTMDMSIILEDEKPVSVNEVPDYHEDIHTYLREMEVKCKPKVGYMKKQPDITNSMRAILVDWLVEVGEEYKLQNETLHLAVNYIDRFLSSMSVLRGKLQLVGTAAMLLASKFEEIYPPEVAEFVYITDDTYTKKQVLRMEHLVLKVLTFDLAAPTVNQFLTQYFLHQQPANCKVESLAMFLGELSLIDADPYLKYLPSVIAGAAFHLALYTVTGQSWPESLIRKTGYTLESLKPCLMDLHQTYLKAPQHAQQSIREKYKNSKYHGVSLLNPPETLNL
Chain of Cyclin-C (P24863 whole entry): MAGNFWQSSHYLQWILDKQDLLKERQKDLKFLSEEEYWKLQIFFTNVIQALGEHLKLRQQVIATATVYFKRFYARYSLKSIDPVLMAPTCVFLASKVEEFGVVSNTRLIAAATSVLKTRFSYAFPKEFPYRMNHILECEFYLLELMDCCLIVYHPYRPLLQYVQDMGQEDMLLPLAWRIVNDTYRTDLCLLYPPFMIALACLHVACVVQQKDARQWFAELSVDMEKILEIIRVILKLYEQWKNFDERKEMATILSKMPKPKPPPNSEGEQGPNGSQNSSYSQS
Chain of Cyclin-C (Homo sapiens) (P24863 whole entry): as above
Chain of Cyclin-dependent kinase 12 (Homo sapiens) (Q9NYV4 whole entry, looked up): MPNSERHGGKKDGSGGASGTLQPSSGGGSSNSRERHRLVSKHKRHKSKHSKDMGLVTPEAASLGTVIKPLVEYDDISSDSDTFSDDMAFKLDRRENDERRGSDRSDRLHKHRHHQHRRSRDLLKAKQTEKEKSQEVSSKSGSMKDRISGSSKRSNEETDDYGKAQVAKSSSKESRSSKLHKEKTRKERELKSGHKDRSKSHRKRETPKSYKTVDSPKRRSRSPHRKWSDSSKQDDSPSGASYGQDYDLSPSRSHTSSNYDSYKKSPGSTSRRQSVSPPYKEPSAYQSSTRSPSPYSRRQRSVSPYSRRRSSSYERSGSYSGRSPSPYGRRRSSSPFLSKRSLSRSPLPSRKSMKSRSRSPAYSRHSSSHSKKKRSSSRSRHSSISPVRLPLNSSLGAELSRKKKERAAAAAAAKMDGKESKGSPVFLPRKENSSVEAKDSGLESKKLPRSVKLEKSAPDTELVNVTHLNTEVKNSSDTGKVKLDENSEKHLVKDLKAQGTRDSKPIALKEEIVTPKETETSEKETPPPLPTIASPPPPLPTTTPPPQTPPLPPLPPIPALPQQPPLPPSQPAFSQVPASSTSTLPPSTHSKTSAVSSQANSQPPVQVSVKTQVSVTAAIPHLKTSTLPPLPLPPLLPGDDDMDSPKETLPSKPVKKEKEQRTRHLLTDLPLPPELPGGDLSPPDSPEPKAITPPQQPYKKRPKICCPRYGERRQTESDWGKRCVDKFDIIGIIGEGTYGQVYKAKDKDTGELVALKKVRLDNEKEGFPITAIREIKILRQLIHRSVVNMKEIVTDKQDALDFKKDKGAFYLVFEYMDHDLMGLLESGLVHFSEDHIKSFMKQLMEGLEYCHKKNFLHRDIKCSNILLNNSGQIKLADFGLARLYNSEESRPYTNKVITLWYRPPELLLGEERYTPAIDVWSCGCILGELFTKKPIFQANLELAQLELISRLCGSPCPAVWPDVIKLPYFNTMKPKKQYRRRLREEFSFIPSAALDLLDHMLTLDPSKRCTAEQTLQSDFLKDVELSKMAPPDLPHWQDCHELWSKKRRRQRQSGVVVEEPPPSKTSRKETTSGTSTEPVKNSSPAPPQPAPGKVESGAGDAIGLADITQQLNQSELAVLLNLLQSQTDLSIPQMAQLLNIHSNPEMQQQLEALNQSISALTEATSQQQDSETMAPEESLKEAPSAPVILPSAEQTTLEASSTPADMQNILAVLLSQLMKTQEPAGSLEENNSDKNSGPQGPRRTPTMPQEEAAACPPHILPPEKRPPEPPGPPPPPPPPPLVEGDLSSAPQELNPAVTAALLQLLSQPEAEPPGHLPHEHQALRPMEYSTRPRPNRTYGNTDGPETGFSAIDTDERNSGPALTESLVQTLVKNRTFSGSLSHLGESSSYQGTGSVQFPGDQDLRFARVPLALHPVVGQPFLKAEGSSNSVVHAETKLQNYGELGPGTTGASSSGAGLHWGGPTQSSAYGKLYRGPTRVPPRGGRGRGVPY
Chain of Cyclin-K (Homo sapiens) (O75909 whole entry): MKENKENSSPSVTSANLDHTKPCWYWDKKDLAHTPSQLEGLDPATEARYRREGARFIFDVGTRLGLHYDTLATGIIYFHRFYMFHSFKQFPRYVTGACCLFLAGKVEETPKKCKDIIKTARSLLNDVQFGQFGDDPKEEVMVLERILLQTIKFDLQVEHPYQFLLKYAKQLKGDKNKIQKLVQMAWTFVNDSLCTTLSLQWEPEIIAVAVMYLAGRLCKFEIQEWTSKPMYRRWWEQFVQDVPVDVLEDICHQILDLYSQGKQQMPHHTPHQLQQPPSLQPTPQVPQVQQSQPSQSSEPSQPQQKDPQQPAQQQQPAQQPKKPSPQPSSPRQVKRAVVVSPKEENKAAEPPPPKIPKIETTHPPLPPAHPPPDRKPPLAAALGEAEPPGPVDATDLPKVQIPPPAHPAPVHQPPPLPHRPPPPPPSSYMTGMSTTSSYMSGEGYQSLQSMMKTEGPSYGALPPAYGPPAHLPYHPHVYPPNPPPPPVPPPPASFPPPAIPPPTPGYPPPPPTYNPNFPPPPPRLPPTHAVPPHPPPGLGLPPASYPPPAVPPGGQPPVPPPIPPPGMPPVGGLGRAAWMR

O=C(Cn1cc(-c2ccc(-c3cncc4ccccc34)cc2)cn1)N1CCN(CCCC23CC4CC(CC(C4)C2)C3)CC1
active: Activity [1] | Activity [3] | Activity (Cyclin-C (Homo sapiens)) | Activity [6] | Activity [7] | Activity [11] Tde | Activity (MDA-MB-468 [12]) | inhibition (MDA-MB-468 [13]) | inhibition (MDA-MB-468 [14]) | Activity [15] Dose-Dependent Effect | Activity [16] | Activity [17] | Activity [19] | Activity [20] | Activity [21]
2.52 µM: DC50 [2]
5.87 µM: IC50 (HCT-116)
5.73 µM: IC50 (MDA-MB-468 [22])
inactive: Activity [4] | Activity [5] | Activity (Cyclin-A2 (Homo sapiens)) | Activity (Cyclin-H (Homo sapiens)) | Activity (Cyclin-K (Homo sapiens)) | Activity [8] | Activity [9] | Activity [10] | Activity [18]
2.64 µM: DC50 (Cyclin-C)
